Data reported in patent US20040067952A1, “Method and composition for treatment of cancer” (priority 2001, published 2004).
Like-named read-outs stand apart in the source and are kept apart here.

Assays:
[1] = system: HUH-7; assay: [3H]Thymidine incorporation assay, HUH-7; type: cell-based; conditions: Homo sapiens, 5 days, read-out: % inhibition of [3H] thymidine incorporation (compared to control)
Experimental: (§1) Method: [^3H]Thymidine incorporation assay was employed to study the effect of clofazimine on cell proliferation. Here, adherent cells (5/000-10/000) were plated into 24-well Corning tissue culture dishes and exposed to culture medium (MEM 5% FBS) containing the vehicle or different concentrations of clofazimine (10^-9 to 10^-5 moles per liter). For Novikoff which is a detached rat cell line, 2000 cells were suspended in 2 ml of DMEM (5%FBS) and kept under the same condition as for attached cells. Media were replaced with fresh media on alternate days. […] The amount of radioactivity incorporated was determined using β-scintillation counter (18). Results are presented as the actual counts per minute against the concentration of the drug used in the culture media or as % inhibition (reduction in thymidine incorporation compared to controls). Treatment of different liver cancer cell lines, HUH-7, HepG2, SKHEP-1, Hep3-B (human cell lines) and Novikoff (rat cell line) with clofazimine led to dose-dependent inhibition of [3H]thymidine incorporation by these cells (Table 1 and FIG. 1). Values represent mean±s.e.m of % inhibition of [3H] thymidine incorporation (compared to control) for each cell line when treated for 5 days with different concentrations of clofazimine.

[2] = system: HepG2; assay: [3H]Thymidine incorporation assay, HepG2; type: cell-based; conditions: Homo sapiens, 5 days, read-out: % inhibition of [3H] thymidine incorporation (compared to control)
Experimental: as §1

[3] = system: SKHEP-1; assay: [3H]Thymidine incorporation assay, SKHEP-1; type: cell-based; conditions: Homo sapiens, SK-HEP1, 5 days, read-out: % inhibition of [3H] thymidine incorporation (compared to control)
Experimental: as §1

[4] = system: Hep3-B; assay: [3H]Thymidine incorporation assay, Hep3-B; type: cell-based; conditions: Homo sapiens, Hep3B, Hep3-β, 5 days, read-out: % inhibition of [3H] thymidine incorporation (compared to control)
Experimental: as §1

[5] = system: Novikoff; assay: [3H]Thymidine incorporation assay, Novikoff; type: cell-based; conditions: Rattus norvegicus, 5 days, read-out: % inhibition of [3H] thymidine incorporation (compared to control)
Experimental: as §1

[6] = system: LOVO; assay: [3H]thymidine incorporation, LOVO colorectal cancer cells; type: cell-based, human; conditions: 5 day treatment
Experimental: FIG. 8: [3H]thymidine incorporation expressed as counts per minute in LOVO cells (colorectal cancer cell line) treated in culture for 5 days with different concentrations of clofazimine.
Method: [^3H]Thymidine incorporation assay was employed to study the effect of clofazimine on cell proliferation. Here, adherent cells (5/000-10/000) were plated into 24-well Corning tissue culture dishes and exposed to culture medium (MEM 5% FBS) containing the vehicle or different concentrations of clofazimine (10^−9 to 10^−5 moles per liter). For Novikoff which is a detached rat cell line, 2000 cells were suspended in 2 ml of DMEM (5%FBS) and kept under the same condition as for attached cells. Media were replaced with fresh media on alternate days. At the end of the treatment period (5-10 days), cell cultures were assayed for thymidine incorporation by the addition of 0.5 μCi of [3H]thymiydine to each well for the last 4 h of culture. The amount of radioactivity incorporated was determined using β-scintillation counter (18). Results are presented as the actual counts per minute against the concentration of the drug used in the culture media or as % inhibition (reduction in thymidine incorporation compared to controls). […]

[7] = system: HT-29; assay: [3H]thymidine incorporation, HT-29 colorectal cancer cells; type: cell-based; conditions: Homo sapiens, 120 h; HT-29, 1 μM clofazimine, 5 day treatment period; read-out: inhibition of cell proliferation
[8] = system: C-170; assay: [3H]thymidine incorporation, C-170 colorectal cancer cells; type: cell-based; conditions: Homo sapiens, C170, 120 h; C-170, 1 μM clofazimine, 5 day treatment period; read-out: inhibition of cell proliferation
Experimental: Method: [^3H]Thymidine incorporation assay was employed to study the effect of clofazimine on cell proliferation. Here, adherent cells (5/000-10/000) were plated into 24-well Corning tissue culture dishes and exposed to culture medium (MEM 5% FBS) containing the vehicle or different concentrations of clofazimine (10^−9 to 10^−5 moles per liter). For Novikoff which is a detached rat cell line, 2000 cells were suspended in 2 ml of DMEM (5%FBS) and kept under the same condition as for attached cells. Media were replaced with fresh media on alternate days. At the end of the treatment period (5-10 days), cell cultures were assayed for thymidine incorporation by the addition of 0.5 μCi of [3H]thymiydine to each well for the last 4 h of culture. The amount of radioactivity incorporated was determined using β-scintillation counter (18). Results are presented as the actual counts per minute against the concentration of the drug used in the culture media or as % inhibition (reduction in thymidine incorporation compared to controls). Treatment of different liver cancer cell lines, HUH-7, HepG2, SKHEP-1, Hep3-B (human cell lines) and Novikoff (rat cell line) with clofazimine led to dose-dependent inhibition of [3H]thymidine incorporation by these cells (Table 1 and FIG. 1).

[9] = Solubility and stability in lipiodol; type: physicochemical
[10] = reference 9; cited from earlier work
[11] = system: HCC; conditions: HCC patients, cited from earlier work

**Q.** What does the source list for CC(C)/N=c1/cc2n(-c3ccc(Cl)cc3)c3ccccc3nc-2cc1Nc1ccc(Cl)cc1 [clofazimine, 3-(4-chloroanilino)-10-(4-chlorophenyl)-2, 10-dihydro-2-(isopropylimino)-phenazine]?
**A.** inhibition at 0.01 µM ([1]; HUH-7, clofazimine 0.01 μM): 0%; inhibition at 0.1 µM ([1]; HUH-7, clofazimine 0.1 μM): 38.3 ± 7.2%; inhibition at 0.5 µM ([1]; HUH-7, clofazimine 0.5 μM): 51.1 ± 3.4%; inhibition at 1 µM ([1]; HUH-7, clofazimine 1.0 μM): 88.9 ± 1.1%; inhibition at 5 µM ([1]; HUH-7, clofazimine 5.0 μM): 96.7 ± 0.9%; inhibition at 0.01 µM ([2]; HepG2, clofazimine 0.01 μM): 21 ± 1.9%; inhibition at 0.1 µM ([2]; HepG2, clofazimine 0.1 μM): 38.2 ± 2.2%; inhibition at 0.5 µM ([2]; HepG2, clofazimine 0.5 μM): 52.9 ± 4.7%; inhibition at 1 µM ([2]; HepG2, clofazimine 1.0 μM): 75.6 ± 2.7%; inhibition at 5 µM ([2]; HepG2, clofazimine 5.0 μM): 92.4 ± 1.9%; inhibition at 0.01 µM ([3]; SKHEP-1, clofazimine 0.01 μM): 30.3 ± 2.9%; inhibition at 0.1 µM ([3]; SKHEP-1, clofazimine 0.1 μM): 62.7 ± 7.1%; inhibition at 0.5 µM ([3]; SKHEP-1, clofazimine 0.5 μM): 69 ± 3.2%; inhibition at 1 µM ([3]; SKHEP-1, clofazimine 1.0 μM): 70.9 ± 2.1%; inhibition at 5 µM ([3]; SKHEP-1, clofazimine 5.0 μM): 97.1 ± 1.7%; inhibition at 0.01 µM ([4]; clofazimine 0.01 μM): 28.4 ± 7.4%; inhibition at 0.1 µM ([4]; clofazimine 0.1 μM): 62.3 ± 3.1%; inhibition at 0.5 µM ([4]; clofazimine 0.5 μM): 91.6 ± 1.1%; inhibition at 1 µM ([4]; clofazimine 1.0 μM): 94.3 ± 0.07%; inhibition at 5 µM ([4]; clofazimine 5.0 μM): 95.4 ± 1.4%; inhibition at 0.01 µM ([5]; clofazimine 0.01 μM): 0%; inhibition at 0.1 µM ([5]; clofazimine 0.1 μM): 0%; inhibition at 0.5 µM ([5]; clofazimine 0.5 μM): 11.7 ± 3.3%; inhibition at 1 µM ([5]; clofazimine 1.0 μM): 18.9 ± 2.9%; inhibition at 5 µM ([5]; clofazimine 5.0 μM): 42.7 ± 4.1%; inhibition of proliferation as measured by [3H]thymidine incorporation [6]: profound inhibition of proliferation; inhibition at 1 µM [7]: > 70%; inhibition at 1 µM [8]: > 70%; solubility in lipiodol [9]: highly soluble; stability in lipiodol [9]: stable; log p (octanol/water) [10]: 7.4; objective response ([11]; clofazimine alone, Falkson et al.): no objective response; objective response ([11]; oral clofazimine, 3/30, Ruff et al.): 10%; stabilization of the disease ([11]; oral clofazimine, 13/30, for up to 20 months, Ruff et al.): 43%
